These results are taken from paper PMC6273491, “Two New Oleanane-Type Saponins with Anti-Proliferative Activity from Camellia oleifera Abel. Seed Cake” (Molecules, 2016).

pIC50: −log10 of the molar value.

What all share (format): cell-based
In experiment [1] the test system is human hepatocellular carcinoma cells BEL-7402. The experiment can be described thus: MTT anti-proliferative assay, BEL-7402. The following applies: 72 h treatment, read-out: Cell Lines IC50 BEL-7402. On the procedure:
(§1) The isolated Compounds 1, 2 and total seed cake saponins (C. oleifera) were tested against five human tumor cell lines (human hepatocellular carcinoma cells BEL-7402, human gastric carcinoma cells BGC-823, human breast cancer cells MCF-7, human promyelocytic leukemia cells HL-60 and human oral epidermoid carcinoma cells KB) using the MTT in vitro assay. Taxol, an anticancer agent, was used as the positive control.
(§2) The procedure for the anti-proliferative activity assay was performed according to the MTT reduction method using the human tumor cell lines BEL-7402, BGC-823, MCF-7, HL-60 and KB (Nanjing KeyGEN BioTECH Co., LTD, Jiangsu, China). In brief, the human tumor cell lines in culture medium (100 μL) were placed in a cell of a 96-well plate at a concentration of 4 × 10^3 cells/mL and incubated at 37 °C in 5% CO2 for 24 h. After 24 h, an additional 100 μL of complete medium with either: no additions (negative control), 0.1% DMSO (solvent control), 10 μg/mL Taxol (positive control), or different concentrations (0.391, 0.781, 1.562, 3.125, 6.25, 12.5, 25 and 50 μM) of 1 or 2 or total saponins (0.391, 0.781, 1.562, 3.125, 6.25, 12.5, 25 and 50 μg/mL). The treated cells were incubated as above for 72 h. […] The optical density (OD) of each well was measured at 490 nm using a Tunable Microplate Reader (EL-x800, BioTek Instruments, Winooski, VT, USA). […]

The test system of experiment [2] is human gastric carcinoma cells BGC-823. Kind of experiment: MTT anti-proliferative assay, BGC-823. The conditions noted are these: 72 h treatment, read-out: Cell Lines IC50 BGC-823. The protocol:
as §1, §2
In general terms: Tetrazolium assays rely on reduction of a dye to a coloured formazan, in cell work by metabolically active cells.

The test system of experiment [3] is human breast cancer cells MCF-7. The experiment can be described thus: MTT anti-proliferative assay, MCF-7. The following applies: MCF7, 72 h treatment, read-out: Cell Lines IC50 MCF-7. On the procedure: as §1, §2
The test system of experiment [4] is human promyelocytic leukemia cells HL-60. Kind of experiment: MTT anti-proliferative assay, HL-60. The following applies: 72 h treatment, read-out: Cell Lines IC50 HL-60. On the procedure: as §1, §2
Experiment [5] has as its system human oral epidermoid carcinoma cells KB. The experiment can be described thus: MTT anti-proliferative assay, KB. The conditions noted are these: 72 h treatment, read-out: Cell Lines IC50 KB. On the procedure: as §1, §2
For experiment [6], the system named is five human tumor cell lines (BEL-7402, BGC-823, MCF-7, HL-60 and KB). The experiment can be described thus: MTT anti-proliferative assay, panel of five human tumor cell lines. The conditions noted are these: 72 h treatment, range across BEL-7402, BGC-823, MCF-7, HL-60, KB, read-out: anti-proliferative activity IC50 values, range over five cell lines. On the procedure:
as §1, §2

As for `CC=C(C)C(=O)OC1CC(C)(C)CC2C3=CCC4C5(C)CCC(OC6OC(C(=O)OC)C(O)C(OC7OC(CO)C(O)C(O)C7OC7OC(CO)C(O)C(O)C7O)C6OC6OC(CO)C(O)C(O)C6O)C(C)(C=O)C5CCC4(C)C3(C)CC(O)C12CO` [Compound 1, 16α-hydroxy-22α-O-angeloyl-23α-aldehyde-28-dihydroxymethylene-olean-12-ene-3β-O-[β-D-galacto-pyranosyl-(1→2)]-[β-D-glucopyranosyl-(1→2)-β-D-galactopyranosy-(1→3)]-β-D-glucopyranosid-uronic acid methyl ester], the pIC50 (usually the IC50 on a negative log10 scale, so that one unit is a factor of ten) was 4.98 in experiment [1]; 4.95 in experiment [2]; 4.82 in experiment [3]; 5.19 in experiment [4]; 4.91 in experiment [5]; 4.82 to 5.19 in experiment [6].

Take `CC=C(C)C(=O)OC1CC(C)(C)CC2C3=CCC4C5(C)CCC(OC6OC(C(=O)OC)C(O)C(OC7OC(CO)C(O)C(O)C7O)C6OC6OC(CO)C(O)C(O)C6O)C(C)(C=O)C5CCC4(C)C3(C)CC(O)C12CO` [Compound 2, 16α-hydroxy-22α-O-angeloyl-23α-aldehyde-28-dihydroxymethylene-olean-12-ene-3β-O-[β-D-galactopyranosyl-(1→2)]-[β-D-galactopyranosyl-(1→3)]-β-D-glucopyranosiduronic acid methyl ester]: the pIC50 in experiment [1] is 5.37; in experiment [2], 5.26; in experiment [3], 5.41; in experiment [4] it was 5.75; in experiment [5], 5.46; in experiment [6], 5.26 to 5.74.
